# Measured values published in patent publication US10975084B2, “KDM5 inhibitors” (Merck Sharp & Dohme Corp., priority 2016, dated 2021).
# Molecular target: KDM5B (Homo sapiens (Human), UniProt Q9UGL1)
# Assay: KDM5B TR-FRET Enzyme Activity Assay
# Assay type: biochemical
# Conditions: LANCE TR-FRET; 5 nM full-length recombinant KDM5B; ten point titration 100000 nM to 5.08 nM
# Description: KDM5B TR-FRET Enzyme Activity Assay
# KDM5B enzymatic activity was determined with the LANCE (Lanthanide Chelate Excite) TR-FRET (Time-resolved fluorescence resonance energy transfer) assay. […] To each well of a white Greiner 1536 Lumitrac 1536 well-plate, 50 nL of compound (100 fold dilution in final assay volume of 5 μL) was dispensed, followed by the addition of 4 μL of 1× assay buffer (50 mM Hepes 7.3, 0.5 mM TCEP, 0.005% Brij-35, 0.02% BSA, 50 μM Na-L-Ascorbate and 2 μM AmFe(II)Sulfate) containing 5 nM of Full-length KDM5B enzyme (recombinant protein from baculovirus-transfected Sf21 cells: full-length KDM5B; MW=176.825 kDa). Following a 30 minutes compound and enzyme incubation in a humidified chamber, each reaction was initiated by the addition of 1 μL 1× assay buffer containing […] biotinylated H3K4Me3 peptide, and 500 nM α-ketoglutarate. The final reaction in each well of 5 μL consists of 5 nM KDM5B, 500 nM biotinylated-peptide, and 500 nM α-ketoglutarate. De-methylation reactions were allowed to proceed for 60 minutes. Reactions were immediately quenched by the addition of 5 uL of 2× Lance Detection Buffer (PerkinElmer) with 0.5 mM EDTA and 2 nM of Eu-anti-H3K4Me1-2 antibody, and 30 nM of Streptavidin-conjugated Dylight 650 detection reagents. After 60 minutes incubation with detection reagents, reaction plates were read on a PerkinElmer EnVision plate reader using standard TR-FRET protocol. Briefly, excitation of donor molecules (Eu-chelate-anti-H3K4Me1-2-antibody) with a laser light source at 337 nm produces energy that can be transferred to Dylight-650 acceptor molecules if this donor:acceptor pair is within close proximity. Fluorescence intensity at both 665 nm (acceptor) and 615 nm (donor) are measured and a TR-FRET ratio calculated for each well (acceptor intensity/donor intensity). IC50 values were determined by 4 parameter robust fit of TR-FRET ratio values vs. (Log 10) compound concentrations.
# Sequence of KDM5B (Q9UGL1 whole entry): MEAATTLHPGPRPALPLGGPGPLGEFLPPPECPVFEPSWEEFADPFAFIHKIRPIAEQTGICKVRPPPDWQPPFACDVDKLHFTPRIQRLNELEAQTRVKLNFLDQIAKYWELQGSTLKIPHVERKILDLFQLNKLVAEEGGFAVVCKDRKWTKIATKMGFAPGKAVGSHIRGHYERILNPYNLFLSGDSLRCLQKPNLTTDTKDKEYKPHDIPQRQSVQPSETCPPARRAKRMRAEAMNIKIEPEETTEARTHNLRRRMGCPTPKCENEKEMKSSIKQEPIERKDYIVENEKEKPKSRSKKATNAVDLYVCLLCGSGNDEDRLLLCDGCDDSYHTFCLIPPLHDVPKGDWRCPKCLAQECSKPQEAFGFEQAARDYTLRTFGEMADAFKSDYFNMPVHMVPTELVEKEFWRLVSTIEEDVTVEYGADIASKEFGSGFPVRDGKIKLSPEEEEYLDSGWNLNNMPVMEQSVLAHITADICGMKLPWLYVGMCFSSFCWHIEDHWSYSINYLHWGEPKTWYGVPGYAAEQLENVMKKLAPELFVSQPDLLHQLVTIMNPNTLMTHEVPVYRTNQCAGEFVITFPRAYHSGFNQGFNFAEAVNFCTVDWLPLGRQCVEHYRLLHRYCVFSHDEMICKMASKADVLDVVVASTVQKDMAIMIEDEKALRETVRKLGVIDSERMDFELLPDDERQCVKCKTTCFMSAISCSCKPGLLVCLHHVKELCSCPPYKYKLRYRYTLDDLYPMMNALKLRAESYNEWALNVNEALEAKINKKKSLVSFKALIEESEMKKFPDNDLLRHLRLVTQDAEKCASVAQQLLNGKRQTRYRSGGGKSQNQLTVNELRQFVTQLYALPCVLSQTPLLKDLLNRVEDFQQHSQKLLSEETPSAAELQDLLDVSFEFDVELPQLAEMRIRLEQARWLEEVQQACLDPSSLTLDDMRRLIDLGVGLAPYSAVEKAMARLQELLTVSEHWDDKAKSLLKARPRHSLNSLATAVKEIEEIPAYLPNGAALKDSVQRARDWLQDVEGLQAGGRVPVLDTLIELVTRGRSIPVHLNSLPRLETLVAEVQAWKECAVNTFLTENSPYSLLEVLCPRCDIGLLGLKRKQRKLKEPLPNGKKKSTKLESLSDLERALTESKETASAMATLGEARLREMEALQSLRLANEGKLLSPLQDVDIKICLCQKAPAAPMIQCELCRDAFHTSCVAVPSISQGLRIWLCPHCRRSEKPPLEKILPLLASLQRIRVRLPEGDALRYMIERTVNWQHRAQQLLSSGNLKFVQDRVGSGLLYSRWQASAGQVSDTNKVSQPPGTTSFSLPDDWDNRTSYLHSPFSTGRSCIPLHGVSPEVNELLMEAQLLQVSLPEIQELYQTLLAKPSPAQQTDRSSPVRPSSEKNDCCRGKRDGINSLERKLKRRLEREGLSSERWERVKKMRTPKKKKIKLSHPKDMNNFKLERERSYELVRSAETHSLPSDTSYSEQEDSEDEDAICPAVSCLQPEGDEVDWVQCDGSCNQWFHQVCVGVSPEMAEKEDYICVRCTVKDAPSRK
row,IC50 [nM],Structure (SMILES)
1,3360,"CC(C)c1c(-c2ccccc2Cl)[nH]c2ncnn2c1=O [Example 11-65, 5-(2-chlorophenyl)-6-(1-methylethyl)[1,2,4]triazolo[1,5-a]pyrimidin-7(4H)-one]"
2,13.5,"CC(C)c1c(-c2ccc3nc[nH]c3c2)[nH]c2ncnn2c1=O [Example 11-70, 5-(1H-benzimidazol-6-yl)-6-(1-methylethyl)[1,2,4]triazolo[1,5-a]pyrimidin-7(4H)-one]"
3,634,"CC(C)c1c(-c2ccnn2Cc2ccccc2)[nH]c2ncnn2c1=O [Example 11-91, 5-(1-benzyl-1H-pyrazol-5-yl)-6-(1-methylethyl)[1,2,4]triazolo[1,5-a]pyrimidin-7(4H)-one]"
4,21.6,"CC(C)c1c(-c2ccc(C#N)cc2)[nH]c2ncnn2c1=O [Example 11-38, 4-[6-(1-methylethyl)-7-oxo-4,7-dihydro[1,2,4]triazolo[1,5-a]pyrimidin-5-yl]benzonitrile]"
5,394,"CC(C)c1c(-c2ccccc2F)[nH]c2ncnn2c1=O [Example 11-32, 5-(2-fluorophenyl)-6-(1-methylethyl)[1,2,4]triazolo[1,5-a]pyrimidin-7(4H)-one]"
6,9.66,"CC(C)c1c(-c2cnn(-c3cccc(Cl)c3)c2)[nH]c2ncnn2c1=O [Example 11-51, 5-[1-(3-chlorophenyl)-1H-pyrazol-4-yl]-6-(1-methylethyl)[1,2,4]triazolo[1,5-a]pyrimidin-7(4H)-one]"
7,32.9,"CC(C)c1c(-c2ccc(N)cc2)[nH]c2ncnn2c1=O [Example 11-99, 5-(4-aminophenyl)-6-(1-methylethyl)[1,2,4]triazolo[1,5-a]pyrimidin-7(4H)-one]"
8,54.5,"CC(C)c1c(-c2ccc(CO)nc2)[nH]c2ncnn2c1=O [Example 11-130, 5-[6-(hydroxymethyl)pyridin-3-yl]-6-(1-methylethyl)[1,2,4]triazolo[1,5-a]pyrimidin-7(4H)-one]"
9,51.2,"CC(C)c1c(-c2cnn3c2CCC3)[nH]c2ncnn2c1=O [Example 11-112, 5-(5,6-dihydro-4H-pyrrolo[1,2-b]pyrazol-3-yl)-6-(1-methylethyl)[1,2,4]triazolo[1,5-a]pyrimidin-7(4H)-one]"
10,21.6,"CC(C)c1c(-c2cccc(C#N)c2)[nH]c2ncnn2c1=O [Example 11-37, 3-[6-(1-methylethyl)-7-oxo-4,7-dihydro[1,2,4]triazolo[1,5-a]pyrimidin-5-yl]benzonitrile]"
11,17.3,"CC(C)c1c(-c2cnc(-c3ccc(F)cc3)o2)[nH]c2ncnn2c1=O [Example 11-113, 5-[2-(4-fluorophenyl)-1,3-oxazol-5-yl]-6-(1-methylethyl)[1,2,4]triazolo[1,5-a]pyrimidin-7(4H)-one]"
12,17.9,"CC(C)c1c(-c2ccn(C)c2)[nH]c2ncnn2c1=O [Example 11-27, 6-(1-methylethyl)-5-(1-methyl-1H-pyrrol-3-yl)[1,2,4]triazolo[1,5-a]pyrimidin-7(4H)-one]"
13,1260,"CC(C)c1c(-c2cc3ccccc3n2C)[nH]c2ncnn2c1=O [Example 11-77, 6-(1-methylethyl)-5-(1-methyl-1H-indol-2-yl)[1,2,4]triazolo[1,5-a]pyrimidin-7(4H)-one]"
14,26.5,"CC(C)c1c(-c2cccc(CO)c2)[nH]c2ncnn2c1=O [Example 11-59, 5-[3-(hydroxymethyl)phenyl]-6-(1-methylethyl)[1,2,4]triazolo[1,5-a]pyrimidin-7(4H)-one]"
15,36.9,"CC(C)c1c(-c2ccc(N(C)C)cc2)[nH]c2ncnn2c1=O [Example 11-103, 5-[4-(dimethylamino)phenyl]-6-(1-methylethyl)[1,2,4]triazolo[1,5-a]pyrimidin-7(4H)-one]"
16,303,"CC(C)c1c(-c2cccc(Oc3ccccc3)c2)[nH]c2ncnn2c1=O [Example 11-46, 6-(1-methylethyl)-5-(3-phenoxyphenyl)[1,2,4]triazolo[1,5-a]pyrimidin-7(4H)-one]"

# The next lines start with the compound.
row,Structure (SMILES),IC50 [nM]
1,"COCC(C)(C)n1cc(-c2[nH]c3ncnn3c(=O)c2C(C)C)cn1 [Example 11-92, 5-[1-(2-methoxy-1,1-dimethylethyl)-1H-pyrazol-4-yl]-6-(1-methylethyl)[1,2,4]triazolo[1,5-a]pyrimidin-7(4H)-one]",5.29
2,"CCOC(=O)c1[nH]c2ncnn2c(=O)c1Cl [Example 8-10, ethyl 6-chloro-7-oxo-4,7-dihydro[1,2,4]triazolo[1,5-a]pyrimidine-5-carboxylate]",6280
3,"O=c1c(F)c(C(F)(F)F)[nH]c2ncnn12 [Example 8-17, 6-fluoro-5-(trifluoromethyl)[1,2,4]triazolo[1,5-a]pyrimidin-7(4H)-one]",25700
4,"CC(C)n1cc(-c2[nH]c3ncnn3c(=O)c2C2CCC2)cn1 [Example 8-41, 6-cyclobutyl-5-[1-(1-methylethyl)-1H-pyrazol-4-yl][1,2,4]triazolo[1,5-a]pyrimidin-7(4H)-one]",32.9
5,"CC(C)c1c(-c2ccc(CN3CCOCC3)s2)[nH]c2ncnn2c1=O [Example 11-108, 6-(1-methylethyl)-5-[5-(morpholin-4-ylmethyl)thiophen-2-yl][1,2,4]triazolo[1,5-a]pyrimidin-7(4H)-one]",5.08
6,"CC(C)c1c(-c2cnn(Cc3ccncc3)c2)[nH]c2ncnn2c1=O [Example 11-15, 6-(1-methylethyl)-5-[1-(pyridin-4-ylmethyl)-1H-pyrazol-4-yl][1,2,4]triazolo[1,5-a]pyrimidin-7(4H)-one]",7.5
7,"CC(C)c1c(C2=CCC(O)CC2)[nH]c2ncnn2c1=O (stereo not drawn) [Example 11-36, 5-(4-hydroxycyclohex-1-en-1-yl)-6-(1-methylethyl)[1,2,4]triazolo[1,5-a]pyrimidin-7(4H)-one]",137
8,"CC(C)c1c(-c2ccn(C(C)(C)C)c2)[nH]c2ncnn2c1=O [Example 11-134, 5-(1-tert-butyl-1H-pyrrol-3-yl)-6-(1-methylethyl)[1,2,4]triazolo[1,5-a]pyrimidin-7(4H)-one]",5.08
9,"CC(C)c1csc(-c2[nH]c3ncnn3c(=O)c2C(C)C)c1 [Example 11-141, 6-(1-methylethyl)-5-[4-(1-methylethyl)thiophen-2-yl][1,2,4]triazolo[1,5-a]pyrimidin-7(4H)-one]",59.8
10,"COCCn1cc(-c2[nH]c3ncnn3c(=O)c2C(C)C)cn1 [Example 11-16, 5-[1-(2-methoxyethyl)-1H-pyrazol-4-yl]-6-(1-methylethyl)[1,2,4]triazolo[1,5-a]pyrimidin-7(4H)-one]",5.73
11,"CC(C)c1c(-c2cnn(C(C)(C)C)c2)[nH]c2ncnn2c1=O [Example 11-145, 5-(1-tert-butyl-1H-pyrazol-4-yl)-6-(1-methylethyl)[1,2,4]triazolo[1,5-a]pyrimidin-7(4H)-one]",5.08
12,"O=c1cc(-c2cccc(F)c2)[nH]c2ncnn12 [Example 8-30, 5-(3-fluorophenyl)[1,2,4]triazolo[1,5-a]pyrimidin-7(4H)-one]",2450
13,"CC(C)c1c(-c2ccc3ncn(C4CC4)c3c2)[nH]c2ncnn2c1=O [Example 11-89, 5-(1-cyclopropyl-1H-benzimidazol-6-yl)-6-(1-methylethyl)[1,2,4]triazolo[1,5-a]pyrimidin-7(4H)-one]",21.3
14,"Cc1[nH]c2ncnn2c(=O)c1C(C)C [Example 8-12, 5-methyl-6-(1-methylethyl)[1,2,4]triazolo[1,5-a]pyrimidin-7(4H)-one]",474
15,"CC(C)c1c(-c2cccc(CN3CCCCC3)c2)[nH]c2ncnn2c1=O [Example 11-49, 6-(1-methylethyl)-5-[3-(piperidin-1-ylmethyl)phenyl][1,2,4]triazolo[1,5-a]pyrimidin-7(4H)-one]",33.2
16,"CCCn1cc(-c2[nH]c3ncnn3c(=O)c2C(C)C)cn1 [Example 11-21, 6-(1-methylethyl)-5-(1-propyl-1H-pyrazol-4-yl)[1,2,4]triazolo[1,5-a]pyrimidin-7(4H)-one]",5.08
17,"CC(C)c1c(-c2cc(C(F)(F)F)nn2C)[nH]c2ncnn2c1=O [Example 11-87, 6-(1-methylethyl)-5-[1-methyl-3-(trifluoromethyl)-1H-pyrazol-5-yl][1,2,4]triazolo[1,5-a]pyrimidin-7(4H)-one]",1220
18,"O=c1cc(-c2ccco2)[nH]c2ncnn12 [Example 8-24, 5-furan-2-yl[1,2,4]triazolo[1,5-a]pyrimidin-7(4H)-one]",6780
19,"CC(C)c1c(-c2cnn(C3CCCCO3)c2)[nH]c2ncnn2c1=O (stereo not drawn) [Example 11-125, 6-(1-methylethyl)-5-[1-(tetrahydro-2H-pyran-2-yl)-1H-pyrazol-4-yl][1,2,4]triazolo[1,5-a]pyrimidin-7(4H)-one]",7.36
20,"CC(C)c1c(-c2cnn(C(C)C)c2)[nH]c2ncnn2c1=O [Example 11-20, 6-(1-methylethyl)-5-[1-(1-methylethyl)-1H-pyrazol-4-yl][1,2,4]triazolo[1,5-a]pyrimidin-7(4H)-one]",5.08
